Measured values: patent publication US12708630B2, “Combined therapy of 4′-thio-5-aza-2′-deoxycytidine and Venetoclax” (PINOTBIO, INC., priority 2021, dated 2026)

Tests used:
Assay in all cases: drug activity profiling cytotoxicity
Assay type in all cases: cell-based
[1] = test system: Thp1; details: Homo sapiens, THP-1; Thp1 cell line, AML; read-out: Aza-T-dCyd IC50
Summary of the method: (§1)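 First, 200 cell lines were profiled for sensitivity to Aza-T-dCyd by cytotoxicity; then responses were analysed together with genomic features.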

[2] = test system: AsPC-1; details: Homo sapiens, ASPC1; AsPC-1 cell line, Pancreas; read-out: Aza-T-dCyd IC50
Summary of the method: as §1

[3] = test system: IM-9; details: Homo sapiens; IM-9 cell line, B-cell lymphoma; read-out: Aza-T-dCyd IC50
Summary of the method: as §1

[4] = test system: NAMALWA; details: NAMALWA cell line, Burkitt's lymphoma; read-out: Aza-T-dCyd IC50
Summary of the method: as §1

[5] = test system: CAMA-1; details: Homo sapiens; CAMA-1 cell line, Breast; read-out: Aza-T-dCyd IC50
Summary of the method: as §1

[6] = test system: CFPAC-1; details: Homo sapiens; CFPAC-1 cell line, Pancreas; read-out: Aza-T-dCyd IC50
Summary of the method: as §1

[7] = test system: SCC-25; details: Homo sapiens; SCC-25 cell line, Head and Neck; read-out: Aza-T-dCyd IC50
Summary of the method: as §1

[8] = test system: SU-DHL-8; details: Homo sapiens; SU-DHL-8 cell line, B-cell lymphoma; read-out: Aza-T-dCyd IC50
Summary of the method: as §1

[9] = test system: 786-O; details: Homo sapiens, 786-0; 786-O cell line, Kidney; read-out: Aza-T-dCyd IC50
Summary of the method: as §1

[10] = test system: AU565; details: Homo sapiens; AU565 cell line, Breast; read-out: Aza-T-dCyd IC50
Summary of the method: as §1

[11] = test system: A431; details: Homo sapiens, A-431; A431 cell line, Skin (Head and Neck); read-out: Aza-T-dCyd IC50
Summary of the method: as §1

[12] = test system: SKOV3; details: Homo sapiens, SK-OV-3; SKOV3 cell line, Female GU (Ovary); read-out: Aza-T-dCyd IC50
Summary of the method: as §1

[13] = test system: U-138MG; details: Homo sapiens, U138-MG; U-138MG cell line, CNS (Glioma); read-out: Aza-T-dCyd IC50
Summary of the method: as §1

[14] = test system: HuCCT1; details: Homo sapiens, HuCCT-1; HuCCT1 cell line, Liver; read-out: Aza-T-dCyd IC50
Summary of the method: as §1

[15] = test system: 639-V; details: Homo sapiens; 639-V cell line, Bladder; read-out: Aza-T-dCyd IC50
Summary of the method: as §1

[16] = test system: BT474; details: Homo sapiens, BT-474; BT474 cell line, Breast; read-out: Aza-T-dCyd IC50
Summary of the method: as §1

[17] = test system: Colo 205; details: Homo sapiens; Colo 205 cell line, Colon; read-out: Aza-T-dCyd IC50
Summary of the method: as §1

[18] = test system: SW962; details: Homo sapiens, SW 962; SW962 cell line, Female GU (Vulva); read-out: Aza-T-dCyd IC50
Summary of the method: as §1

[19] = test system: Hs 729; details: Hs 729 cell line, Sarcoma; read-out: Aza-T-dCyd IC50
Summary of the method: as §1

[20] = test system: DLD-1; details: Homo sapiens; DLD-1 cell line, Colon; read-out: Aza-T-dCyd IC50
Summary of the method: as §1

[21] = test system: TCCSUP; details: Homo sapiens, TCC-SUP; TCCSUP cell line, Bladder; read-out: Aza-T-dCyd IC50
Summary of the method: as §1

[22] = test system: A375; details: Homo sapiens, A-375; A375 cell line, Skin (Melanoma); read-out: Aza-T-dCyd IC50
Summary of the method: as §1

[23] = test system: Mia PaCa-2; details: Homo sapiens; Mia PaCa-2 cell line, Pancreas; read-out: Aza-T-dCyd IC50
Summary of the method: as §1

[24] = test system: SW620; details: Homo sapiens, SW-620; SW620 cell line, Colon; read-out: Aza-T-dCyd IC50
Summary of the method: as §1

[25] = test system: MS751; details: MS751 cell line, Female GU (Cervix); read-out: Aza-T-dCyd IC50
Summary of the method: as §1

[26] = test system: SW1417; details: Homo sapiens; SW1417 cell line, Colon; read-out: Aza-T-dCyd IC50
Summary of the method: as §1

[27] = test system: MDA MB 415; details: Homo sapiens; MDA MB 415 cell line, Breast; read-out: Aza-T-dCyd IC50
Summary of the method: as §1

[28] = test system: HepG2; details: Homo sapiens; HepG2 cell line, Liver; read-out: Aza-T-dCyd IC50
Summary of the method: as §1

[29] = test system: TT; details: Homo sapiens; TT cell line, Endocrine (Thyroid); read-out: Aza-T-dCyd IC50
Summary of the method: as §1

[30] = test system: GA-10; details: Homo sapiens; GA-10 cell line, Burkitt's lymphoma; read-out: Aza-T-dCyd IC50
Summary of the method: as §1

Question: Which IC50 [1] does the source give for `Nc1ncn([C@H]2CC(O)[C@@H](CO)S2)c(=O)n1` (stereo partly drawn) [Aza-T-dCyd, 4′-thio-5-aza-2′-deoxycytidine] here?
Answer: 5120 nM

Question: What about the IC50 [2] of the same molecule?
Answer: 2120 nM

Question: What about the IC50 [3] of the same molecule?
Answer: 1050 nM

Question: And the IC50 [4]?
Answer: 10.9 nM

Question: What about the IC50 [5] of the same molecule?
Answer: > 10000 nM

Question: And the IC50 [6]?
Answer: 1750 nM

Question: And the IC50 [7]?
Answer: 126 nM

Question: What about the IC50 [8] of the same molecule?
Answer: 70.6 nM

Question: And the IC50 [9]?
Answer: 249 nM

Question: And the IC50 [10]?
Answer: > 10000 nM

Question: And the IC50 [11]?
Answer: 256 nM

Question: And the IC50 [12]?
Answer: 2920 nM

Question: What about the IC50 [13] of the same molecule?
Answer: > 10000 nM

Question: What about the IC50 [14] of the same molecule?
Answer: 105 nM

Question: What about the IC50 [15] of the same molecule?
Answer: 1570 nM

Question: And the IC50 [16]?
Answer: > 10000 nM

Question: And the IC50 [17]?
Answer: 81.1 nM

Question: And the IC50 [18]?
Answer: > 10000 nM

Question: And the IC50 [19]?
Answer: > 10000 nM

Question: What about the IC50 [20] of the same molecule?
Answer: 221 nM

Question: And the IC50 [21]?
Answer: 1180 nM

Question: What about the IC50 [22] of the same molecule?
Answer: 66.7 nM

Question: And the IC50 [23]?
Answer: 881 nM

Question: What about the IC50 [24] of the same molecule?
Answer: 234 nM

Question: What about the IC50 [25] of the same molecule?
Answer: > 10000 nM

Question: And the IC50 [26]?
Answer: > 10000 nM

Question: And the IC50 [27]?
Answer: > 10000 nM

Question: What about the IC50 [28] of the same molecule?
Answer: 892 nM

Question: And the IC50 [29]?
Answer: > 10000 nM

Question: What about the IC50 [30] of the same molecule?
Answer: 33.5 nM
